The numbers were not newly measured in PMC6698915 (Cancer chemotherapy and pharmacology, 2015), which cites them from elsewhere.

This data set has as its system patients with locally advanced (M0) head and neck cancer. The following applies: with cisplatin and docetaxel 75 mg/m^2 q21 days, pegfilgrastim, previously untreated; cited from earlier work.

Consider `CO[C@H]1C[C@@H]2CC[C@@H](C)[C@@](O)(O2)C(=O)C(=O)N2CCCC[C@H]2C(=O)O[C@H]([C@H](C)C[C@@H]2CC[C@@H](OCCO)[C@H](OC)C2)CC(=O)[C@H](C)/C=C(\C)[C@@H](O)[C@@H](OC)C(=O)[C@H](C)C[C@H](C)/C=C/C=C/C=C/1C` [everolimus], for which the “escalation to full dose of daily everolimus” value is given as “not possible to escalate to full dose of daily everolimus due to dose-limiting neutropenia”.
